IC50 data for 6 compounds are collected here from patent US8334316B2, “Substituted organosulfur compounds and methods of using thereof” (ACEA Biosciences, Inc., priority 2004, dated 2012).

What all share (type): cell-based
The subject of experiment [1] is MCF7 (human breast cancer cell line). Kind of experiment: MTT assay IC50 (48 h), MCF7. To be noted: MCF-7, 48 hours. The procedure: (§1) In another assay format, a test compound is assayed for its cytotoxicity and/or cytostatic effect on certain cancer cell types, using endpoint assay methods. Cells in the NCI cancer cell panel may be used. Cells after a pre-incubation for certain length of time (for example, 8 hrs or 24 hrs) are incubated with a test compound at serially-diluted concentrations (for example, five 10-fold dilutions) for 24 hrs and/or 48 hrs, and/or other specific length of time. The dose dependent cytotoxicity and/or cytostatic effects of test compounds can then be tested and evaluated using the 3-(4,5-dimethylthiazol-2-yl)-2,5-diphenyltetrazolium bromide (MTT) assay method, as described by, for example, Boyd (In Principle of Practice of Oncology, Devita, J. T., Hellman, S. and Rosenberg S. A. (Eds), 1989, Vol, 3, PPO Update, No. 10).
(§2) The anticancer potency of DBTS and its derivatives were tested in 8 different types of human cancer cell lines using the RT-CES system and MTT assay. The 8 cancer cell lines were HT1080 (the human fibrosarcoma cell line), H460 (human non small cell lung cancer cell line), OVCAR4 (the human ovarian cancer cell line), MCF7 (human breast cancer cell line) MDA-MB231 (M231, the human breast cancer cell line) A2780 (the human […] cancer cell line) Jurkat (the human T cell leukemia cell line). The test DBTS derivatives include ACEA100107, ACEA100108, ACEA100109, ACEA100111, ACEA100115, ACEA100116, ACEA100117, ACEA100118, ACEA100119, and ACEA100120.
(§3) For the MTT assay, the cells were seeded into the regular 96× well plates at the cell seeding density ranging from 5000 cells/well to 15,000 cells/well. The cells were incubated at 5% CO2 and 37° C. for overnight. The derivatives were serially diluted and added to the cells. The treatment was terminated after 48 hours of incubation by adding MTT staining reagent. After 4 hours, the staining was stopped by the stop buffer and then the calorimetric measurement was carried out on a microtiter plate reader at dual wave length, 650 nm and 550 nm.
For orientation: Tetrazolium assays rely on reduction of a dye to a coloured formazan, in cell work by metabolically active cells.

Experiment [2] concerns HT1080 (human fibrosarcoma cell line). The experiment is described as follows: RT-CES system cell proliferation/cytotoxicity IC50, HT1080. The following applies: HT-1080, time point of maximum inhibition. From the text:
(§4) The RT-CES system comprises three components, an electronic sensor analyzer, a device station and 16× or 96× microtiter plate devices. Microelectrode sensor array was fabricated on glass slides with lithographical microfabrication methods and the electrode-containing slides are assembled to plastic trays to form electrode-containing wells. Each 16× (or 96×) microtiter plate device used in RT-CES system comprises up to 16 (or 96) such electrode-containing wells. The device station receives the 16× or 96× microtiter plate devices and is capable of electronically switching any one of the wells to the sensor analyzer for impedance measurement. In operation, the devices with cells cultured in the wells are placed into a device station that is located inside an incubator. Electrical cables connect the device station to the sensor analyzer. Under the RT-CES software control, the sensor analyzer can automatically select wells to be measured and continuously conduct impedance measurements. The impedance data from the analyzer is transferred to a computer, analyzed and processed by the integrated software.
(§5) To quantify cell status based on the measured cell-electrode impedance, a parameter termed Cell Index is derived, according to
(§6) [formula] where Rb(f) and Rcell(f) are the frequency dependent electrode resistances (a component of impedance) without cells or with cell present, respectively. N is the number of the frequency points at which the impedance is measured. Thus, Cell Index is a quantitative measure of the status of the cells in an electrode-containing well. Under the same physiological conditions, more cells attached on to the electrodes leads to larger Rcell(f) value, leading to a larger value for Cell Index. Furthermore, for the same number of cells present in the well, a change in the cell status such as morphology will lead to a change in the Cell Index. For example, an increase in cell adhesion or cell spreading leads to larger cell-electrode contact area which will lead to an increase in Rcell(f) and thus a larger value for Cell Index. The Cell Index may also be calculated using a formula different from the one described here. Other methods for calculating the Cell Index based on impedance measurement can be found in PCT application number PCT/US04/37696, fined on Nov. 12, 2004, PCT application number PCT/US05/04481, filed on Feb. 9, 2005, U.S. patent application Ser. No. 10/987,732, filed on Nov. 12, 2004, and U.S. patent application Ser. No. 11/055,639, filed on Feb. 9, 2005.
HT1080 cells (human fibrosarcoma cells) were seeded into wells of 16× or 96× microtiter plate devices (electronic plates, i.e., the plates comprise microelectrode sensor arrays in the wells of the plate) with an initial seeding density of 4,000 cells per well and were pre-incubated in incubator under standard cell culture conditions for about 18.6 hrs. Dibenzyl trisulfide solution in DMSO was added into wells following the incubation period. The cell status was monitored prior to and after the compound addition using RT-CES system. The cell indexes of different wells were between 0.72 and 1.45 just before the compound addition. […] The cell index was normalized against the cell index values at a time point just after compound addition (about 20 hrs after cell seeding).
(§7) For the assay performed on the RT-CES system, the cells were seeded into the 16× or 96× microtiter plate devices (electronic plates, i.e., the plates comprise microelectrode sensor arrays in the wells of the plate) at the seeding density ranging from 5000 cells/well to 15,000 cells/well. The cells were incubated at 5% CO2 and 37° C. for overnight till the cell indices reached the growth phase where the cell index was between 0.8 and 1.2. Serially diluted compounds were then added to the cells followed by dynamic monitoring of the effect of the compounds on the cell proliferation and cytotoxicity. […]

The subject of experiment [3] is H460 (human non small cell lung cancer cell line). Kind of experiment: MTT assay IC50 (48 h), H460. The following applies: NCI-H460, H460, 48 hours. The method, then:
as §1, §2, §3

Another experiment deals with A2780 cells. The experiment is described as follows: RT-CES system cell proliferation/cytotoxicity IC50, A2780. To be noted: Homo sapiens, time point of maximum inhibition.
Source text: as §4, §5, §6
A2780 cells (human […]) were seeded into wells of 16× or 96× microtiter plate devices (electronic plates, i.e., the plates comprise microelectrode sensor arrays in the wells of the plate) with an initial seeding density of 20,000 cells per well and were pre-incubated in incubator under standard cell culture conditions for about 16.4 hrs. Dibenzyl trisulfide solution in DMSO was added into wells following the incubation period. The cell status was monitored prior to and after the compound addition using RT-CES system. The cell indexes of different wells were between 2.2 and 3.7 just before the compound addition. […] The cell index was normalized against the cell index values at a time point just after compound addition (about 17.5 hrs after cell seeding).
as §7

In experiment [4] the test system is MDA-MB231 (M231, human breast cancer cell line). The experiment is described as follows: MTT assay IC50 (48 h), MDA-MB231. To be noted: MDA-MB-231, M231, 48 hours. The method, then: as §1, §2, §3
For experiment [5], the system named is OVCAR4 (human ovarian cancer cell line). Kind of experiment: MTT assay IC50 (48 h), OVCAR4. To be noted: OVCAR-4, OVCAR4, 48 hours. The procedure:
as §1, §2, §3

In experiment [6] the test system is HT1080 (human fibrosarcoma cell line). Kind of experiment: MTT assay IC50 (48 h), HT1080. To be noted: HT-1080, HT1080, 48 hours. The method, then: as §1, §2, §3

One may read the IC50 as the concentration that inhibits the measured activity by half. Read a low IC50 as greater potency. On to `Fc1ccc(CSSSCc2ccc(F)cc2)cc1` [ACEA100108, Di(p-fluorobenzyl)trisulfide], for which the IC50 in experiment [1] was above 50 µM; in experiment [2], 1.3 µM; in experiment [3] it was 10.2 µM; in the experiment with A2780 cells, 0.5 µM; in experiment [4] it was 4.4 µM; in experiment [5], above 50 µM. In experiment [6], the 50% inhibitory concentration (IC50) is 19 µM.
On to `Clc1ccccc1CSSSCc1ccccc1Cl` [ACEA100115, Di(o-chlorobenzyl)trisulfide], for which the IC50 is above 50 µM in experiment [1]; 2.2 µM in experiment [2]; 11.8 µM in experiment [3]; 0.75 µM with A2780 cells; 3.1 µM in experiment [4]; above 50 µM in experiment [5]. Moreover, the half-inhibitory concentration (IC50) in experiment [6] was 12.4 µM.
As to `Cc1cccc(CSSSCc2cccc(C)c2)c1` [ACEA100116, di(m-methylbenzyl)trisulfide], the half-inhibitory concentration (IC50) in experiment [1] was above 50 µM; in experiment [2], 1.9 µM; in experiment [3] it was 5.4 µM; in the experiment with A2780 cells, 0.75 µM; in experiment [4], 0.65 µM; in experiment [5], above 50 µM. Also, the IC50 in experiment [6] came out at 2.2 µM.
As to `FC(F)(F)c1cccc(CSSSCc2cccc(C(F)(F)F)c2)c1` [ACEA100117, Di(m-trifluoromethylbenzyl)trisulfide], the half-inhibitory concentration (IC50) in experiment [1] was above 50 µM; in experiment [2], 27.5 µM; in experiment [3], above 50 µM; in the experiment with A2780 cells it was 11.8 µM; in experiment [4] it was 14.9 µM; in experiment [5] it was above 50 µM. Moreover, in experiment [6], inhibition was half-maximal at 47.5 µM (IC50).
In the case of `Clc1ccc(CSSSCc2ccc(Cl)cc2)cc1` [ACEA100118, Di(p-chlorobenzyl)trisulfide], the 50% inhibitory concentration (IC50) in experiment [1] was above 50 µM; in experiment [2], 1.2 µM; in experiment [3], 7.95 µM; in the experiment on A2780 cells, 0.7 µM; in experiment [4], 1.2 µM; in experiment [5] it was above 50 µM. For the same compound, the IC50 in experiment [6] amounted to 1.15 µM.
As to `c1ccc(CSSSCc2ccccc2)cc1` [DBTS, Dibenzyl trisulfide], the IC50 in experiment [1] was above 50 µM; in experiment [2], 2.2 µM; in experiment [3] it was 14.2 µM; in the experiment with A2780 cells, 0.4 µM; in experiment [4], 2.4 µM; in experiment [5] it was above 50 µM. Also, 2.55 µM corresponded to half-maximal inhibition in experiment [6] (IC50).
